Measurements reported in ChEMBL document CHEMBL1156320, “Discovery of novel (S)-alpha-phenyl-gamma-amino butanamide containing CCR5 antagonists via functionality inversion approach” (Bioorg Med Chem Lett, 2010).
The source made the active and inactive calls. No cut-off for these calls is given here.

Tests used:
Format in all cases: functional, cell-based
[1] = target: T1, C-C chemokine receptor type 5 (Homo sapiens, UniProt P51681); test: Antagonist activity at CCR5 receptor expressed in CHO cells assessed as inhibition of RANTES-induced […]GTPgammaS binding at 10 uM
Target sequence in this assay (P51681 whole entry, looked up): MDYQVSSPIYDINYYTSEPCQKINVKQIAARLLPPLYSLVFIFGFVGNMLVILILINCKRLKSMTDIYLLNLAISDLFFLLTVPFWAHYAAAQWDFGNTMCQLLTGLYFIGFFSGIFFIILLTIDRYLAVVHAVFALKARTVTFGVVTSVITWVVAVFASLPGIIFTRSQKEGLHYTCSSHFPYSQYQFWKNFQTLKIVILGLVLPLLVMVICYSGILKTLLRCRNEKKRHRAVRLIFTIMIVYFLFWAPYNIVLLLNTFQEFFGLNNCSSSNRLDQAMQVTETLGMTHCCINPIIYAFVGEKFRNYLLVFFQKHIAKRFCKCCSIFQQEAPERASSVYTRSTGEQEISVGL

[2] = target: T1, C-C chemokine receptor type 5; test: Antagonist activity at CCR5 receptor expressed in CHO cells assessed as inhibition of RANTES-induced […]GTPgammaS binding at 300 nM
Target sequence in this assay (P51681 whole entry, looked up): as above

[3] = target: T1, C-C chemokine receptor type 5; test: Antagonist activity at CCR5 receptor expressed in CHO cells assessed as inhibition of RANTES-induced […]GTPgammaS binding

| Structure (SMILES) | inhibition [2] [%] | further results |
| --- | --- | --- |
| Cc1nc2cccnc2n1[C@@H]1C[C@H]2CC[C@@H](C1)N2CC[C@H](CO)c1ccccc1 |  | inhibition [1]: inactive |
| Cc1nc2cccnc2n1[C@@H]1C[C@H]2CC[C@@H](C1)N2CC[C@H](C(=O)OCc1ccc(F)cc1)c1ccccc1 | 19 |  |
| Cc1nc2cccnc2n1[C@H]1C[C@H]2CC[C@@H](C1)N2CC[C@H](C(=O)NCc1ccc(F)cc1)c1ccccc1 | 30 | IC50 [3]: 14.4 nM |
| Cc1nc2cccnc2n1[C@H]1C[C@H]2CC[C@@H](C1)N2CC[C@H](C(=O)N1C(=O)OC[C@H]1Cc1ccccc1)c1ccccc1 (stereo in doubt; 1a) | 30 |  |
| Cc1nc2cccnc2n1[C@H]1C[C@H]2CC[C@@H](C1)N2CC[C@H](C(=O)N1C(=O)OC[C@H]1Cc1ccccc1)c1ccccc1 (stereo in doubt; 1b) | 10 |  |
| COC(=O)[C@@H](CCN1[C@@H]2CC[C@H]1C[C@@H](n1c(C)nc3cccnc31)C2)c1ccccc1 | 22 | IC50 [3]: 112 nM |
| COC(=O)[C@@H](CCN1[C@@H]2CC[C@H]1C[C@H](n1nnc3cccnc31)C2)c1ccccc1 |  | C50 [3]: > 10 µM |
| Cc1nc2cccnc2n1[C@@H]1C[C@H]2CC[C@@H](C1)N2CC[C@H](COCc1ccc(F)cc1)c1ccccc1 | 42 |  |
| O=C(NCc1ccc(F)cc1)[C@@H](CCN1[C@@H]2CC[C@H]1C[C@H](n1nnc3cccnc31)C2)c1ccccc1 | 1 |  |
